Read-outs that look alike come from different tables or passages of the source. Starred links: 1 amine or outer side, 2 acyl side, 3 side chain; linkers in the order of their positions; H or OH if unused. Positions of bridges follow the written chain, without caps; N, C: chain ends. Non-standard residues stand in square brackets, D forms with d. Groups on a side chain read outwards from the residue. *: point of attachment. Butyryl(4-SO2NHCO(CH2)16Tz) = O=C(CCCCCCCCCCCCCCCCc1nnn[nH]1)NS(=O)(=O)CCCC(=O)*; Decanoyl(10-(4-HOOC-PhO)) = O=C(O)c1ccc(OCCCCCCCCCC(=O)*)cc1; C20 diacid = O=C(O)CCCCCCCCCCCCCCCCCCC(=O)*; C18 diacid = O=C(O)CCCCCCCCCCCCCCCCC(=O)*; C16 diacid = O=C(O)CCCCCCCCCCCCCCC(=O)*; γGlu = O=C(O)[C@H](CCC(=O)[*:2])N[*:1]; C14 diacid = O=C(O)CCCCCCCCCCCCC(=O)*; AEEA = NCCOCCOCC(=O)O; Aib = CC(C)(N)C(=O)O
What was measured:
human GLP-1 receptor = molecular target: T1, human GLP-1 receptor (Homo sapiens, UniProt P43220); assay: Human GLP-1 receptor in vitro potency assay (CRE-luciferase reporter, BHK cells); format: cell-based; details: for Ability to agonise the GLP-1 receptor, in words: Tables 4a-4c
T1 construct: expressed in transfected cells; host or cells: BHK (Baby Hamster Kidney) cells, clone BHK 467-12A KZ-10, stably transfected, with CRE-luciferase reporter
T1 sequence (P43220 24-463): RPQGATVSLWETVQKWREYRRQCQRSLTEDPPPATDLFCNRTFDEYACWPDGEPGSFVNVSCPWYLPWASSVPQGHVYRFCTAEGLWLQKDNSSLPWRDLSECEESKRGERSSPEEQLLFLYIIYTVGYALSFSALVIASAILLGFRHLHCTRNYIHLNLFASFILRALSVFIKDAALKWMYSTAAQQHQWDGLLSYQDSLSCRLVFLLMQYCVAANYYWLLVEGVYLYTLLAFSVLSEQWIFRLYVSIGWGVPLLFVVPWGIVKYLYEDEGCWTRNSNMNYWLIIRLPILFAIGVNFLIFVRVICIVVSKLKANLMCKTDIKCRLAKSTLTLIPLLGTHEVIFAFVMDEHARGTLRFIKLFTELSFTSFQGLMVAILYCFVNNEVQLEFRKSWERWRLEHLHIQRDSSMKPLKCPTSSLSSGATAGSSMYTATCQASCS
Protocol: It is thus possible to measure GLP-1 receptor activity using a CRE-luciferase reporter gene introduced into Baby Hamster Kidney (BHK) cells co-expressing the GLP-1 receptor.
Cells were aliquoted and stored at -180° C. until use.
Plates were sealed and incubated at room temperature with gentle shaking for 30 minutes while protected from light. Luminescence was detected on a luminescence plate reader e.g. a Synergy 2 (BioTek).

[1] = molecular target: T2, human amylin receptor (hAmyR3) (Homo sapiens, UniProt O60896+P30988); assay: Human amylin receptor in vitro potency assay (CRE-luciferase reporter, BHK cells); format: cell-based; details: for Ability to agonise the amylin receptor, in words: Tables 4a-4c;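 as to all read-outs here: BHK cells expressing human calcitonin receptor plus RAMP3 (amylin-3 receptor) with a CRE-luciferase reporter, agonist activity read as luminescence from cAMP-driven transcription, 7-point serial dilutions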
T2 construct: host or cells: BHK cells (Hollex-1 line: human calcitonin receptor (a) + CRE-Luc), further transfected with human RAMP3
T2 sequence (P30988 25-474): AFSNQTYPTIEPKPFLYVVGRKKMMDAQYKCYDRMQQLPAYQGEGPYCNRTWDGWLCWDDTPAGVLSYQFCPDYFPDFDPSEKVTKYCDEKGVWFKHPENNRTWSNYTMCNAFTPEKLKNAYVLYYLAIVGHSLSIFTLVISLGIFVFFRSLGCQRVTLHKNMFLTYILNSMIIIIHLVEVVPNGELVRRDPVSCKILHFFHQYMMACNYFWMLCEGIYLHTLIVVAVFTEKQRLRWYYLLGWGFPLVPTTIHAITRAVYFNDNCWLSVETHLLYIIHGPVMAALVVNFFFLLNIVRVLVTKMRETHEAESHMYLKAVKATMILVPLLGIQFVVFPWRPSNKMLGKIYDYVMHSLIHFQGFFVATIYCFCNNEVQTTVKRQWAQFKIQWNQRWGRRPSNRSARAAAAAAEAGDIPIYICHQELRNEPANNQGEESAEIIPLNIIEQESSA
T2 sequence (O60896 24-148): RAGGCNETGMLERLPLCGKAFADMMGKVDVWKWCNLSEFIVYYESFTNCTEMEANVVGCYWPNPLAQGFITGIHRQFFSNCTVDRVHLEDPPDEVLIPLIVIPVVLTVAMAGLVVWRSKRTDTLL

[2] = Table 4a, BHK cells expressing human GLP-1R, CRE-Luc, 3 hours, read-out: Human GLP-1R potency [EC50 (pM)]
[3] = Table 4a, BHK hAmyR3/CRE-Luc cells, 3 hours, read-out: Human AmyR3 potency [EC50 (pM)]

| Compound | EC50 (human GLP-1 receptor; [2]) [pM] | EC50 [1, 3] [pM] | also measured |
| --- | --- | --- | --- |
| CC[C@H](C)[C@H](NC(=O)[C@H](Cc1ccccc1)NC(=O)[C@H](CCC(=O)O)NC(=O)[C@H](CCCCNC(=O)COCCOCCNC(=O)COCCOCCNC(=O)CC[C@H](NC(=O)CCCCCCCCCCCCCCC(=O)O)C(=O)O)NC(=O)[C@H](C)NC(=O)[C@H](C)NC(=O)[C@H](CCC(N)=O)NC(=O)CNC(=O)[C@H](CCC(=O)O)NC(=O)[C@H](CC(C)C)NC(=O)[C@H](Cc1ccc(O)cc1)NC(=O)[C@H](CO)NC(=O)[C@H](CO)NC(=O)[C@@H](NC(=O)[C@H](CC(=O)O)NC(=O)[C@H](CO)NC(=O)[C@@H](NC(=O)[C@H](Cc1ccccc1)NC(=O)[C@@H](NC(=O)CNC(=O)[C@H](CCC(=O)O)NC(=O)C(C)(C)NC(=O)[C@@H](N)Cc1c[nH]cn1)[C@@H](C)O)[C@@H](C)O)C(C)C)C(=O)N[C@@H](C)C(=O)N[C@@H](Cc1c[nH]c2ccccc12)C(=O)N[C@@H](CC(C)C)C(=O)N[C@H](C(=O)N[C@@H](CCCNC(=N)N)C(=O)NCC(=O)N[C@@H](CCCCNC(=O)COCCOCCNC(=O)COCCOCCNC(=O)CC[C@H](NC(=O)CCCCCCCCCCCCCCC(=O)O)C(=O)O)C(=O)NCC(=O)NCC(=O)NCC(=O)N[C@@H](CCC(=O)O)C(=O)N[C@@H](C)C(=O)N[C@@H](CO)C(=O)N[C@@H](CCC(=O)O)C(=O)N[C@@H](CC(C)C)C(=O)N[C@@H](CO)C(=O)N[C@H](C(=O)N[C@@H](C)C(=O)N[C@@H](C)C(=O)N[C@@H](CC(C)C)C(=O)NCC(=O)N[C@@H](CCCNC(=N)N)C(=O)N[C@@H](CC(C)C)C(=O)N[C@@H](CO)C(=O)N[C@@H](C)C(=O)N[C@@H](CCC(=O)O)C(=O)N[C@@H](CC(C)C)C(=O)N[C@@H](Cc1c[nH]cn1)C(=O)N[C@@H](CCC(=O)O)C(=O)N[C@@H](CC(C)C)C(=O)N[C@@H](C)C(=O)N[C@H](C(=O)N[C@@H](CC(C)C)C(=O)N1CCC[C@H]1C(=O)N[C@@H](CCCNC(=N)N)C(=O)N[C@H](C(=O)N[C@@H](CCC(=O)O)C(=O)N[C@H](C(=O)NCC(=O)N[C@@H](CO)C(=O)NCC(=O)N[C@@H](CO)C(=O)N1CCC[C@H]1C(N)=O)[C@@H](C)O)[C@@H](C)O)[C@@H](C)O)[C@@H](C)O)C(C)C [Compound 0075] | 84.5 | 43.9 |  |
| H-H[Aib]EGTFTSDVSSYLEEQAAREFIAWLVRGK([AEEA-AEEA-γGlu-C16 diacid])GGGGGEASELSTAALGRLSAELHK([AEEA-AEEA-γGlu-C16 diacid])LATLPRTETGSGSP-NH2 [Compound 0280] | 34.3 | 18 |  |
| H-H[Aib]EGTFTSDVSSYLEEQAAREFIAWLVRGRK([AEEA-AEEA-γGlu-C18 diacid])GGGGEKCNTATCATQRLANFLVHSSNNFGPILPPTNVGSNTY-NH2 (disulfide 38-43 (inferred)) [Comparator compound 0671, reference compound] |  |  | EC50 (human GLP-1 receptor): 4.5 pM; Ability to agonise the GLP-1 receptor, in words (human GLP-1 receptor): retained their potencies on the GLP-1 receptor; EC50 [1]: 230 pM; Ability to agonise the amylin receptor, in words [1]: impaired potency on the amylin receptor |
| H-H[Aib]EGTFTSDVSK([AEEA-AEEA-γGlu-C16 diacid])YLEEQAARK([AEEA-AEEA-γGlu-C16 diacid])FIEWLVRGAAEASELSTAALGRLSAELHELATLPRTETGSGSP-NH2 [Compound 0629] | 7.9 | 97.5 |  |
| H-H[Aib]EGTFTSDVSSYLEEQAAREFIAWLVRK([AEEA-AEEA-γGlu-C16 diacid])RGGGGGASELSTAALGRLSK([AEEA-AEEA-γGlu-C16 diacid])ELHELATLPRTETGSGSP-NH2 [Compound 0297] | 30.2 | 46 |  |
| H-H[Aib]EGTFTSDVSSYLEGQAAREFIAWLVRGRGEGEGEK([AEEA-AEEA-γGlu-C18 diacid])EASELSTAALGRLSAELHELATLPRTETGSGSP-NH2 [Compound 0010] | 5.4 | 37 |  |
| H-H[Aib]EGTFTSDVSSYLEEQAAREFIAWLVRGRK([AEEA-γGlu-C18 diacid])GGGGEASELSTAALGRLSAELHELATLPRTETGSGSP-NH2 [Compound 0660] | 3.9 | 12.7 |  |
| H-H[Aib]EGTFTSDVSSYLEEQAAREFIEWLVRGK(Butyryl(4-SO2NHCO(CH2)16Tz))GGGASELSTAALGRLSAELHELATLPRTETGSGSP-NH2 [Compound 0146] | 25.7 | 14 |  |
| HWEGTFTSDVSSYLEEK([AEEA-AEEA-γGlu-C20 diacid])AAREFIEWLVRGRGEASELSTAALGRLSAELHELATLPRTETGSGSP-NH2 [Compound 0473] | 3.1 | 16.2 |  |
| H-H[Aib]EGTFTSDVSSYLEEQAARK([γGlu-γGlu-γGlu-γGlu-C20 diacid])FIAWLVRGRGGGGGEASELSTAALGRLSAELHELATLPRTETGSGSP-NH2 [Compound 0633] | 28.2 | 5.3 |  |
| H-HGEGTFTSDVSSYLEEQAARK([AEEA-AEEA-γGlu-C14 diacid])FIEWLVRGK([AEEA-AEEA-γGlu-C14 diacid])GEASELSTAALGRLSAELHELATLPRTETGSGSP-NH2 [Compound 0039] | 34.8 | 59.5 |  |
| H-H[Aib]EGTFTSDVSSYLEEQAAREFIAWLVK([AEEA-AEEA-γGlu-C18 diacid])GRGGGGGEASELSTAALGRLSAELHELATLPRTETGSGSP-NH2 [Compound 0144] | 7.1 | 16.8 |  |
| H-H[Aib]EGTFTSDVSSYLEEQAARK(Butyryl(4-SO2NHCO(CH2)16Tz))FIAWLVRGRGEASELSTAALGRLSAELHELATLPRTETGSGSP-NH2 [Compound 0125] | 8 | 12.2 |  |
| H-H[Aib]EGTFTSDVSSYLEEQAAREFIAWLVRGRK([AEEA-AEEA-γGlu-C18 diacid])GGEASELSTAALGRLSAELHELATLPRTETGSGSP-NH2 [Compound 0114] | 1 | 17.5 |  |
| H-Aib-EGTFTSDVSSYLEEQAAREFIAWLVRGR-K([2-[2-[2-[[2-[2-[2-[[(4S)-4-Carboxy-4-(17-Carboxyheptadecanoylamino)Butanoyl]Amino]Ethoxy]Ethoxy]Acetyl]Amino]Ethoxy]Ethoxy]Acetyl])-GGGGEKCNTATCATQRLAEFLRHSSNNFGPILPPTNVGSNTP-amide [Comparator compound 0672, reference compound] |  |  | Ability to agonise the GLP-1 receptor, in words (human GLP-1 receptor): retained their potencies on the GLP-1 receptor; EC50 (human GLP-1 receptor; read-out: Human GLP-1 R potency [EC50 (pM)], Table 4b, reference and comparator compounds): 2.2 pM; EC50 ([1]; Table 4b, reference and comparator compounds, read-out: Human AmyR3 potency [EC50 (pM)]): 606 pM; Ability to agonise the amylin receptor, in words [1]: impaired potency on the amylin receptor |
| H-HAEGTFTSDVSK([AEEA-AEEA-γGlu-C16 diacid])YLEEQAVREFIAK([AEEA-AEEA-γGlu-C16 diacid])LVRGRGGGEASELSTAALGRLSAELHELATLPRTETGSGSP-NH2 [Compound 0482] | 36.5 | 31.8 |  |
| H-H[Aib]EGTFTSDVSSYLEK([AEEA-AEEA-γGlu-C16 diacid])QAAREFIAWLVRGRGGGGGASELSTAALGRLSK([AEEA-AEEA-γGlu-C16 diacid])ELHELATLPRTETGSGSP-NH2 [Compound 0294] | 13.7 | 34.3 |  |
| H-H[Aib]EGTFTSDVSSYLEEQAARK([AEEA-AEEA-γGlu-C18 diacid])FIAWLVRGRGGGGGEASELSTAALGRLSAELHELATLPRTETGSGSP-NH2 [Compound 0639] | 1.5 | 4.6 |  |
| HWEGTFTSDVSSYLEEQAARK([AEEA-AEEA-γGlu-Decanoyl(10-(4-HOOC-PhO))])FIEWLVRGK([AEEA-AEEA-γGlu-Decanoyl(10-(4-HOOC-PhO))])GEGGGGGGGGGEASELSTAALGRLSAELHELATLPRTETGSGSP-NH2 [Compound 0101] |  |  | EC50 (human GLP-1 receptor): 7.1 pM; EC50 [1]: 10.2 pM |
| H-H[Aib]EGTFTSDVSSYLEEQAAREFIAWLVRGK([AEEA-AEEA-γGlu-C16 diacid])GGGGGEASELSTAALGRLSAELHELATLK([AEEA-AEEA-γGlu-C16 diacid])RTETGSGSP-NH2 [Compound 0284] | 41.7 | 32.8 |  |
| H-H[Aib]EGTFTSDVSSYLEEQAAREFIAWLVRGRGK(Butyryl(4-SO2NHCO(CH2)16Tz))GGGASELSTAALGRLSAELHELATLPRTETGSGSP-NH2 [Compound 0145] | 11.9 | 16.5 |  |
| H-H[Aib]EGTFTSDVSSYLEEK([AEEA-AEEA-γGlu-C16 diacid])AAREFIAWLVRGRGGGGGEASELSTAALGRLSAELHK([AEEA-AEEA-γGlu-C16 diacid])LATLPRTETGSGSP-NH2 [Compound 0299] | 6 | 11.5 |  |
| H-H[Aib]EGTFTSDVSSYLEGQAAREFIAWLVRGRGQEPGQAPK([AEEA-AEEA-γGlu-C18 diacid])EASELSTAALGRLSAELHELATLPRTETGSGSP-NH2 [Compound 0085] | 2.2 | 55.8 |  |
| HWEGTFTSD-K([2-[2-[2-[[2-[2-[2-[[(4S)-4-Carboxy-4-[[4-[(19-Carboxynonadecanoylamino)Methyl]Cyclohexanecarbonyl]Amino]Butanoyl]Amino]Ethoxy]Ethoxy]Acetyl]Amino]Ethoxy]Ethoxy]Acetyl])-SSYLEEQAAREFIEWLVRGRGEASELSTAALGRLSAELHELATLPRTETGSGSP-amide [Compound 0272] | 9.2 | 11.3 |  |

Reference: patent US20230331803A1, “CO-AGONISTS OF THE GLP-1 AND AMYLIN RECEPTORS” (priority 2020, published 2023)
